US20240140895A1, “NOVEL AROMATIC MOLECULES” (XENIOPRO GmbH, priority 2018, published 2024)

system: HPEKp cells (human epidermal keratinocyte progenitors, pooled); test: Proliferation assay (alamarBlue) with HPEKp cells; type: cell-based; details: compound at 10 μM, read-out: Activity Range: weighted arithmetic mean (AVEw) of normalized fluorescence intensity, relative to DMSO basis level 1.0
Excerpt: (§1) The antiproliferative activities of compounds falling under formula (Ia), (Tb) and (Ic), respectively, were investigated on cells or cell lines originating from a disorder of the haematopoietic system, including the myeloid cell compartment and the lymphoid cell compartment (T-cells and B-cells), the neuroendocrine system, the cervix, the breast, the ovaries, the lung, the gastrointestinal tract, and the mucosal epithelium, as well as from the skin epithelium and from the muscle. To this end, HL-60 cells, NB-4 cells, HH cells, RPMI-8402 cells, TANOUE cells, TT cells, HeLa cells, MDA-MB-231 cells, FU-OV-1 cells, LOU-NH91 cells, 23132/87 cells, CAL-27 cells, BHY cells, SCC-25 cells, A-431 cells, human primary epidermal keratinocytes (HPEK), and C2C12 cells were seeded into 96-well plates suitable for fluorescence assays (CORNING #3598) at following initial cell numbers: 1000 cells per well for HL-60; 1000 cells per well for NB-4; 5000 cells per well for HH; 5000 cells per well for RPMI-8402; 1500 cells per well for TANOUE; 9000 cells per well for TT; 2000 cells per well for HeLa; 3000 cells per well for MDA-MB-231; 3000 cells per well for FU-OV-1; 4000 cells per well for LOU-NH91; 2000 cells per well for 23132/87; 2000 cells per well for CAL-27; 1500 cells per well for BHY; 1500 cells per well for SCC-25; 700 cells per well for A-431; 1000 cells per well for HPEK; 500 cells per well for C2-C12. The cells were treated with compounds at indicated final concentrations (diluted from the 1000× stock-solutions in DMSO to a final DMSO concentration of 0.1% v/v in H2O (Water For Injection, WFI, Fisherscientific #10378939)) or with the empty carrier DMSO at 0.1% v/v as control for 5 days. At day 5 after starting the treatments the cells were subjected to the alamarBlue® Proliferation Assay (Bio-Rad Serotec GmbH, BUF012B) according to the protocol of the manufacturer. The readout was taken with a multi-well plate-reader in the fluorescence mode with applying a filter for excitation at 560 nm (band width 10 nm) and for emission at 590 nm (band width 10 nm). Control treatments for growth inhibition with commercial compounds such as Methotrexate (MTREX) and Resveratrol (RES) were included on every plate. Some of the test compounds of the present invention were obtained and applied as their salts. According cases are indicated in the column “Specification” in Table 30 to Table 62 and by their sum formula in Table 63.
(§2) The assays were performed in duplicate or more replicates of independent single experiments each containing a six-fold replicate for every condition. For every individual plate, the measured fluorescence intensity values of the conditions with compound treatment were normalized against the corresponding equally weighted arithmetic mean of the fluorescence intensity values of the six DMSO treated control wells in order to obtain the relative values to a baseline level of 1.0.
(§3) Two independent outlier analyses were performed according to the methods by Peirce and Chauvenet (Ross, Journal of Engineering Technology 2003, 1-12). Outliers confirmed by at least one of the methods were excluded from the calculations but not more than one value out of six per compound within a single experiment. The weighted arithmetic mean (here abbreviated as AVEw) for each compound was calculated from the normalized values over all independent replicates of the single experiments comprising the six replicates each. The corresponding standard deviation for the weighted arithmetic mean was calculated according to the method described by Bronstein et al. (Bronstein, Semendjajew, Musiol, Muhlig, Taschenbuch der Mathematik, 5th edition 2001 (German), publisher: Verlag Harri Deutsch, Frankfurt am Main and Thun) and was combined with the Gauβ′ error propagation associated with the performed calculation for the normalization. The resulting standard deviation is herein referred to as “combined standard deviation”. […]

First: OCc1ccc(Oc2ccc(C3CCCCC3)cc2)cc1 [XPA-0006, (4-(4-cyclohexylphenoxy)phenyl)methanol]
Second: CCOC(=O)c1ccc(Oc2ccc(C3CCCCC3)cc2C2CO2)cc1 (stereo not shown) [XPA-1290, ethyl 4-(4-cyclohexyl-2-(oxiran-2-yl)phenoxy)benzoate]
The activity at 10 µM of the first is higher: 40 to 60% for the first, 0 to 20% for the second.

First: O=Cc1ccc(Oc2ccc(C34CC5CC(CC(C5)C3)C4)cc2)cc1 [XPA-0028, 4-(4-(adamantan-1-yl)phenoxy)benzaldehyde]
Second: CCOC(=O)c1ccc(Oc2ccc(C3CCCCC3)cc2C2CC2)cc1 [XPA-1295, ethyl 4-(4-cyclohexyl-2-cyclopropylphenoxy)benzoate]
The activity at 10 µM of the first is lower: 0 to 20% for the first, 70 to 80% for the second.

system: NB-4 cells (human acute promyelocytic leukemia cells); test: Proliferation assay (alamarBlue) with NB-4 cells; type: cell-based; details: Homo sapiens, Table 32, compound at 20 μM, read-out: Activity Range (AVEw, weighted arithmetic mean of normalized fluorescence intensity, DMSO = 1.0)
Excerpt: as §1, §2, §3

For `O=Cc1ccc(Oc2ccc(C34CC5CC(CC(C5)C3)C4)cc2)cc1` [XPA-0028, 4-(4-(adamantan-1-yl)phenoxy)benzaldehyde], the activity at 20 µM was 40 to 60%.

system: TANOUE cells (human B cell leukemia cells); test: Proliferation assay (alamarBlue) with TANOUE cells; type: cell-based; details: Homo sapiens, B-cell, read-out: Activity Range: weighted arithmetic mean (AVEw) of normalized fluorescence intensity relative to DMSO basis level 1.0
Excerpt: as §1, §2, §3

Compared with `O=Cc1ccc(Oc2ccc(C34CC5CC(CC(C5)C3)C4)cc2)cc1` [XPA-0028, 4-(4-(adamantan-1-yl)phenoxy)benzaldehyde], `CCOC(=O)c1ncc(Oc2ccc(C34CC5CC(CC(C5)C3)C4)cc2)cn1` [XPA-1303, ethyl 5-(4-((3r,5r,7r)-adamantan-1-yl)phenoxy)pyrimidine-2-carboxylate] is higher in activity at 20 µM: 0 to 20% for the first, 80 to 90% for the second.

`CCOC(=O)c1ccc(Oc2ccc(C3CCOCC3)cc2)cc1` [XPA-0063, ethyl 4-(4-(tetrahydro-2H-pyran-4-yl)phenoxy)benzoate] and `CCOC(=O)c1ccc(Oc2ccc(C3CCCCC3)cc2C2CO2)cc1` (stereo not shown) [XPA-1290, ethyl 4-(4-cyclohexyl-2-(oxiran-2-yl)phenoxy)benzoate] fall in the same range of activity at 20 µM: 80 to 90% for the first, 80 to 90% for the second.

system: BHY cells (human oral squamous cell carcinoma cells); test: Proliferation assay (alamarBlue) with BHY cells; type: cell-based; details: read-out: Activity Range: weighted arithmetic mean (AVEw) of normalized fluorescence intensity relative to DMSO basis level 1.0
Excerpt: as §1, §2, §3

Molecule `OCc1ccc(Oc2ccc(C3CCCCC3)cc2)cc1` [XPA-0006, (4-(4-cyclohexylphenoxy)phenyl)methanol] has an activity at 20 µM of 80 to 90%.

system: SCC-25 cells (human tongue squamous cell carcinoma cells); test: Proliferation assay (alamarBlue) with SCC-25 cells; type: cell-based; details: Homo sapiens, read-out: Activity Range: weighted arithmetic mean (AVEw) of normalized fluorescence intensity relative to DMSO basis level 1.0
Excerpt: as §1, §2, §3

Molecule `O=Cc1ccc(Oc2ccc(C34CC5CC(CC(C5)C3)C4)cc2)cc1` [XPA-0028, 4-(4-(adamantan-1-yl)phenoxy)benzaldehyde] has an activity at 20 µM of 80 to 90%.

system: HL-60 cells (human acute myeloid leukemia cells); test: Proliferation assay (alamarBlue) with HL-60 cells; type: cell-based; details: Homo sapiens, Table 30, compound at 20 μM, read-out: Activity Range (AVEw, weighted arithmetic mean of normalized fluorescence intensity, DMSO = 1.0)
Excerpt: as §1, §2, §3

Compared with `OCc1ccc(Oc2ccc(C3CCCCC3)cc2)cc1` [XPA-0006, (4-(4-cyclohexylphenoxy)phenyl)methanol], `O=Cc1ccc(Oc2ccc(C34CC5CC(CC(C5)C3)C4)cc2)cc1` [XPA-0028, 4-(4-(adamantan-1-yl)phenoxy)benzaldehyde] is lower in activity at 20 µM: 80 to 90% for the first, 40 to 60% for the second.

system: C2C12 cells (murine myoblast cells); test: Proliferation assay (alamarBlue) with C2C12 cells; type: cell-based; details: Mus musculus, compound at 20 μM, read-out: Activity Range: weighted arithmetic mean (AVEw) of normalized fluorescence intensity, relative to DMSO basis level 1.0
Excerpt: as §1, §2, §3

`O=Cc1ccc(Oc2ccc(C34CC5CC(CC(C5)C3)C4)cc2)cc1` [XPA-0028, 4-(4-(adamantan-1-yl)phenoxy)benzaldehyde] gave an activity at 20 µM of 60 to 70%.

system: MDA-MB-231 cells (human breast carcinoma cells); test: Proliferation assay (alamarBlue) with MDA-MB-231 cells; type: cell-based; details: Homo sapiens, read-out: Activity Range: weighted arithmetic mean (AVEw) of normalized fluorescence intensity relative to DMSO basis level 1.0
Excerpt: as §1, §2, §3

Compared with `OCc1ccc(Oc2ccc(C3CCCCC3)cc2)cc1` [XPA-0006, (4-(4-cyclohexylphenoxy)phenyl)methanol], `CN1CCC(c2ccc(Oc3ccc(C(=O)O)cc3)cc2)CC1` [XPA-0036, 4-(4-(1-methylpiperidin-4-yl)phenoxy)benzoic acid] is higher in activity at 20 µM: 60 to 70% for the first, 80 to 90% for the second.

First: O=Cc1ccc(Oc2ccc(C34CC5CC(CC(C5)C3)C4)cc2)cc1 [XPA-0028, 4-(4-(adamantan-1-yl)phenoxy)benzaldehyde]
Second: CCOC(=O)c1ccc(Oc2ccc(C3CCOCC3)cc2)cc1 [XPA-0063, ethyl 4-(4-(tetrahydro-2H-pyran-4-yl)phenoxy)benzoate]
The activity at 20 µM of the first is lower: 70 to 80% for the first, 80 to 90% for the second.

For `CCOC(=O)c1ccc(Oc2ccc(C3CCCCC3)cc2C2CO2)cc1` (stereo not shown) [XPA-1290, ethyl 4-(4-cyclohexyl-2-(oxiran-2-yl)phenoxy)benzoate], the activity at 20 µM was 70 to 80%.

system: A-431 cells (human epidermoid squamous cell carcinoma cells); test: Proliferation assay (alamarBlue) with A-431 cells; type: cell-based; details: Homo sapiens, 20 μM, read-out: Activity Range: weighted arithmetic mean (AVEw) of normalized fluorescence intensity relative to DMSO basis level 1.0
Excerpt: as §1, §2, §3

Compared with `OCc1ccc(Oc2ccc(C3CCCCC3)cc2)cc1` [XPA-0006, (4-(4-cyclohexylphenoxy)phenyl)methanol], `O=Cc1ccc(Oc2ccc(C34CC5CC(CC(C5)C3)C4)cc2)cc1` [XPA-0028, 4-(4-(adamantan-1-yl)phenoxy)benzaldehyde] is higher in activity at 20 µM: 70 to 80% for the first, 80 to 90% for the second.

system: RPMI-8402 cells (human T cell acute lymphoblastic leukemia cells); test: Proliferation assay (alamarBlue) with RPMI-8402 cells; type: cell-based; details: Homo sapiens, read-out: Activity Range: weighted arithmetic mean (AVEw) of normalized fluorescence intensity relative to DMSO basis level 1.0
Excerpt: as §1, §2, §3

First: OCc1ccc(Oc2ccc(C3CCCCC3)cc2)cc1 [XPA-0006, (4-(4-cyclohexylphenoxy)phenyl)methanol]
Second: CCOC(=O)c1ccc(Oc2ccc(C3CCOCC3)cc2)cc1 [XPA-0063, ethyl 4-(4-(tetrahydro-2H-pyran-4-yl)phenoxy)benzoate]
The activity at 20 µM of the first is lower: 60 to 70% for the first, 80 to 90% for the second.

First: O=Cc1ccc(Oc2ccc(C34CC5CC(CC(C5)C3)C4)cc2)cc1 [XPA-0028, 4-(4-(adamantan-1-yl)phenoxy)benzaldehyde]
Second: CCOC(=O)c1ncc(Oc2ccc(C34CC5CC(CC(C5)C3)C4)cc2)cn1 [XPA-1303, ethyl 5-(4-((3r,5r,7r)-adamantan-1-yl)phenoxy)pyrimidine-2-carboxylate]
The activity at 20 µM of the first is lower: 40 to 60% for the first, 80 to 90% for the second.
